Assay [1] concerns the target GDP-bound KRAS protein (aa 1-169), containing both G12C and C118A amino acid substitutions (Homo sapiens, UniProt P01116, C118A/G12C). Description: Coupled nucleotide exchange assay (SOS-mediated, AlphaScreen). The assay is classed as biochemical. Conditions: for Coupled exchange IC50 (5 min): 5 min compound pre-incubation; for Coupled exchange IC50 (2 h): 2 h compound pre-incubation. (In Alpha technology, singlet oxygen from a donor bead excites a nearby acceptor bead.)

Assay [2] deals with Phosphorylation of ERK1/2 in MIA PaCa-2 cells. Description: Phospho-ERK1/2 MSD assay in MIA PaCa-2 cells. The format is cell-based. The gist of the method:
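In the procedure, cells were plated a day ahead at 25,000 per well. Next, a dilution series of compound in growth medium was added for 2 or 4 h. EGF (10 ng/mL) stimulation for 10 min preceded washing and RIPA lysis. Lysate phospho-ERK1/2 was read by MSD, with IC50 derived by 4-parameter logistic analysis.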

The test system of assay [3] is Phosphorylation of ERK1/2 in A549 cells. The assay can be described thus: Phospho-ERK1/2 MSD assay in A549 cells. The format is cell-based. The note with it: Homo sapiens. On the procedure: For compounds in Table 89, the following assay conditions were employed:
Phospho-ERK1/2 MSD Assay:
Sixteen hours prior to compound treatment, MIA PaCa-2 or A549 cells were seeded in 96-well cell culture plates at a density of 25,000 cells/well and incubated at 37° C., 5% CO2. A compound dose-response titration was diluted in growth media, added to appropriate wells of a cell culture plate, and then incubated at 37° C., 5% CO2 for 2 or 4 hours (see Table 15). Following compound treatment, cells were stimulated with 10 ng/mL EGF (Roche 11376454001) for 10 min, washed with ice-cold Dulbecco's phosphate-buffered saline, no Ca^2+ or Mg^2+ (ThermoFisher Scientific 14190144), and then lysed in RIPA buffer (50 mM Tris-HCl pH 7.5, 1% Igepal, 0.5% sodium deoxycholate, 150 mM NaCl, and 0.5% sodium dodecyl sulfate) containing protease inhibitors (Roche 4693132001) and phosphatase inhibitors (Roche 4906837001). Phosphorylation of ERK1/2 in compound-treated lysates was assayed using Phospho-ERK1/2 Whole Cell Lysate kits (Meso Scale Discovery K151DWD) according to the manufacturer's protocol. Assay plates were read on a Meso Scale Discovery Sector Imager 6000, and data were analyzed using a 4-parameter logistic model to calculate IC50 values.

Where [4] appears, read: Homo sapiens, MIA PaCa-2, 2 h, read-out: p-ERK IC50 (2 h; MIA PaCa-2), 2 h compound treatment.
[5] abbreviates: A549, 2 h, read-out: p-ERK IC50 (2 h; A549), 2 h compound treatment.
Where [6] appears, read: A549, 4 h, read-out: p-ERK IC50 (4 h; A549), 4 h compound treatment.
[7] abbreviates: read-out: p-ERK IC50 (2 h; MIA PaCa-2), 2 h compound treatment.
Setting [8] is: Homo sapiens, MIA PaCa-2, 4 h, read-out: p-ERK IC50 (4 h; MIA PaCa-2), 4 h compound treatment.

The record followed here is US11090304B2 (Amgen Inc., priority 2018, dated 2021).

As a reminder, the IC50 is the midpoint of a concentration-inhibition curve.

Where two headings read alike, the source gives them in different places.

Sequence of GDP-bound KRAS protein (aa 1-169), containing both G12C and C118A amino acid substitutions (P01116 1-169 isoform P01116-2 G12C/C118A): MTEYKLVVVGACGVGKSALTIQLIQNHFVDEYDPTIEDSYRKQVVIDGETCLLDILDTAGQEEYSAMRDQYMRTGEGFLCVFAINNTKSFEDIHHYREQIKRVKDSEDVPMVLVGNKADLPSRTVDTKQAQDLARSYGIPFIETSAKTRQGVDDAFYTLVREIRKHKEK

With `C=CC(=O)N1CCN(c2nc(=O)n(-c3ccccc3C(C)C)c3cc(Br)c(Cl)cc23)[C@@H](C)C1` (single isomer, unassigned) [Example 9-17-2], the “Coupled exchange IC50 (5 min)” value in assay [1] was determined as 1.66 µM. The “Coupled exchange IC50 (2 h)” value in assay [1] worked out at 0.163 µM. The IC50 was 1060 nM in assay [2] (setting [4]); 859 nM in assay [2] (read-out: p-ERK IC50 (4 h; MIA PaCa-2), 4 h compound treatment); at least 10 µM in assay [3] (setting [5]); at least 100 µM in assay [3] (setting [6]).

For the molecule `C=CC(=O)N1CCN(c2nc(=O)n(-c3cccnc3C(C)C)c3nc(-c4ccccc4F)c(Cl)cc23)[C@@H](C)C1` (single isomer, unassigned) [Example 54-9-1], the “Coupled exchange IC50 (5 min)” value in assay [1] is reported as 0.302 | nda μM. The IC50 in assay [2] (setting [7]) is 76 nM; in assay [3] (setting [5]) it was at least 10 µM.

Take `C=CC(=O)N1CCN(c2nc(=O)n(-c3c(C)ncnc3C(C)C)c3nc(-c4ccccc4F)c(Cl)cc23)[C@@H](C)C1` (single isomer, unassigned) [Example 55-13-2]: the “Coupled exchange IC50 (5 min)” value in assay [1] is 0.02 | nda μM. In addition, the IC50 in assay [2] (setting [4]) is 55 nM; in assay [3] (setting [5]) it was at least 10 µM.

Consider `C=CC(=O)N1CCN(c2nc(=O)n(-c3c(C)cc(N(C)C)cc3C(C)C)c3nc(-c4ccccc4F)c(Cl)cc23)[C@@H](C)C1` (single isomer, unassigned) [Example 55-16-2], for which the “Coupled exchange IC50 (5 min)” value in assay [1] is on record as 0.039 | nda μM. Also, the figures for the IC50 in assay [2] (setting [4]) and in assay [3] (setting [5]) were 123 nM and at least 10 µM, respectively.

With `C=CC(=O)N1CCN(c2nc(=O)n(-c3nccnc3C(C)(C)C)c3nc(-c4c(O)cccc4F)c(Cl)cc23)[C@@H](C)C1` (single isomer, unassigned) [Example 55-23-2], the “Coupled exchange IC50 (5 min)” value in assay [1] is given as 0.062 | nda μM. Further, the half-inhibitory concentration (IC50) in assay [2] (setting [4]) is 77 nM; in assay [3] (setting [5]) it was at least 10 µM.

For the molecule `C=CC(=O)N1CCN(c2nc(=O)n(-c3ccccc3C(C)C)c3nc(-c4c(O)cccc4F)c(F)cc23)[C@@H](C)C1` (single isomer, unassigned) [Example 57-6-2], the “Coupled exchange IC50 (5 min)” value in assay [1] is recorded as 0.208 | nda μM. Moreover, the IC50 was 99 nM in assay [2] (setting [7]) and at least 10 µM in assay [3] (setting [5]).

In the case of `C=CC(=O)N1CCN(c2nc(=O)n(-c3ccccc3C(C)C)c3nc(-c4ccccc4F)c(F)cc23)[C@@H](C)C1` (single isomer, unassigned) [Example 57-7-2], the “Coupled exchange IC50 (5 min)” value in assay [1] is on record as 0.384 | nda μM. Further, the half-maximal inhibitory concentration (IC50) in assay [2] (setting [4]) was 236 nM; in assay [3] (setting [5]) it was at least 10 µM.

With `C=CC(=O)N1CCN(c2nc(=O)n(-c3ccccc3C(C)C)c3nc(N4CCCCC4)c(Cl)cc23)[C@@H](C)C1` (single isomer, unassigned) [Example 69-1-2], in assay [1], the “Coupled exchange IC50 (5 min)” value is 0.604 | nda μM. Moreover, the IC50 in assay [2] (setting [4]) is 1020 nM; in assay [3] (setting [5]), at least 10 µM.

`C=CC(=O)N1C[C@H](C)N(c2nc(=O)n(-c3c(C)ccnc3C(C)C)c3nc(-c4c(O)cccc4F)c(F)cc23)[C@@H](C)C1` (single isomer, unassigned) [Example 75-3]: in assay [1], the “Coupled exchange IC50 (5 min)” value is on record as 0.029 | nda μM. Moreover, the half-maximal inhibitory concentration (IC50) in assay [2] (setting [4]) was 27 nM; in assay [3] (setting [5]), at least 10 µM.

In the case of `C=CC(=O)N1CCN(c2nc(=O)n(-c3c(C)ccnc3C(C)C)c3nc(-c4ccccc4F)c(Cl)nc23)[C@@H](C)C1` (single isomer, unassigned) [Example 111-1], the “Coupled exchange IC50 (5 min)” value in assay [1] is reported as 0.076 | nda μM. In addition, the IC50 in assay [2] (setting [4]) was 102 nM; in assay [3] (setting [5]), at least 10 µM.

`C=CC(=O)N1CCN(c2nc(=O)n(-c3c(C)cccc3C)c3nc(-c4c(O)cccc4F)c(Cl)cc23)CC1` [Example 8-8, 6-chloro-1-(2,6-dimethylphenyl)-7-(2-fluoro-6-hydroxyphenyl)-4-(4-(2-propenoyl)-1-piperazinyl)pyrido[2,3-d]pyrimidin-2(1H)-one]: in assay [1], the “Coupled exchange IC50 (5 min)” value is 0.653 µM. Further, in assay [1], the “Coupled exchange IC50 (2 h)” value is 0.117 µM. Moreover, the values for the IC50 in assay [2] (setting [4]), in assay [2] (setting [8]) and in assay [3] (setting [6]) were 327 nM, 143 nM and at least 100 µM, respectively.

Consider `C=CC(=O)N1CCN(c2nc(=O)n(C(CC)CC)c3nc(Cl)c(Cl)cc23)[C@@H](C)C1` [Example 54-3, 6,7-dichloro-4-((2S)-2-methyl-4-(2-propenoyl)-1-piperazinyl)-1-(3-pentanyl) pyrido[2,3-d]pyrimidin-2(1H)-one], for which the “Coupled exchange IC50 (2 h)” value in assay [1] was “nda | 0.781 μM”. The IC50 is 8580 nM in assay [2] (setting [8]) and at least 100 µM in assay [3] (setting [6]).

Consider `C=CC(=O)N1CCN(c2nc(=O)n(CC3(C(F)(F)F)CC3)c3nc(-c4c(O)cccc4F)c(Cl)cc23)[C@@H](C)C1` [Example 54-5, 6-chloro-7-(2-fluoro-6-hydroxyphenyl)-4-((2S)-2-methyl-4-(2-propenoyl)-1-piperazinyl)-1-((1-(trifluoromethyl)cyclopropyl)methyl)pyrido [2,3-d]pyrimidin-2(1H)-one], for which, in assay [1], the “Coupled exchange IC50 (5 min)” value is 0.445 | nda μM. Moreover, the IC50 in assay [2] (setting [4]) is 554 nM; in assay [3] (setting [5]), at least 10 µM.

With `C=CC(=O)N1CCN(c2nc(=O)n(CC3(C)CC3)c3nc(-c4c(O)cccc4F)c(Cl)cc23)[C@@H](C)C1` [Example 54-6, 6-chloro-7-(2-fluoro~ 6-hydroxyphenyl)-1-((1-methylcyclopropyl)methyl)-4-((2S)-2-methyl-4-(2-propenoyl)-1-piperazinyl) pyrido[2,3-d]pyrimidin-2(1H)-one], the “Coupled exchange IC50 (5 min)” value in assay [1] is 0.306 | nda μM. Further, the half-maximal inhibitory concentration (IC50) is 528 nM in assay [2] (setting [4]) and at least 10 µM in assay [3] (setting [5]).

Consider `C=CC(=O)N1CCN(c2nc(=O)n(-c3cccnc3C(C)C)c3nc(-c4ccccc4F)c(Cl)cc23)[C@@H](C)C1` [Example 54-9, 6-chloro-7-(2-fluorophenyl)-4-((2S)-2-methyl-4-(2-propenoyl)-1-piperazinyl)-1-(2-(2-propanyl)-3-pyridinyl) pyrido[2,3-d]pyrimidin-2(1H)-one], for which the “Coupled exchange IC50 (5 min)” value in assay [1] is on record as 0.147 | nda μM. Further, the figures for the IC50 in assay [2] (setting [4]) and in assay [3] (setting [5]) were 86 nM and at least 10 µM, respectively.

For the molecule `C=CC(=O)N1CCN(c2nc(=O)n(-c3ccccc3C3CCC3)c3nc(-c4c(O)cccc4F)c(Cl)cc23)[C@@H](C)C1` [Example 54-10, 6-chloro-1-(2-cyclobutylphenyl)-7-(2-flnoro-6-hydroxyphenyl)-4-((2S)-2-methyl-4-(2-propenoyl)-1-piperazinyl) pyrido[2,3-d]pyrimidin-2(1H)-one], the “Coupled exchange IC50 (5 min)” value in assay [1] is on record as 0.185 | nda μM. Moreover, the concentration for half-maximal inhibition (IC50) in assay [2] (setting [4]) is 182 nM; in assay [3] (setting [5]), at least 10 µM.

For `C=CC(=O)N1CCN(c2nc(=O)n(-c3cccnc3C(C)C)c3nc(-c4c(O)cccc4F)c(Cl)cc23)[C@@H](C)C1` [Example 54-11, 6-chloro-7-(2-fluoro-6-hydroxyphenyl)-4-((2S)-2-methyl-4-(2-propenoyl)-1-piperazinyl)-1-(2-(2-propanyl)-3-pyridinyl) pyrido[2,3-d]pyrimidin-2(1H)-one], the “Coupled exchange IC50 (5 min)” value in assay [1] is 0.069 | nda μM. In addition, the half-maximal inhibitory concentration (IC50) was 63 nM in assay [2] (setting [4]) and at least 10 µM in assay [3] (setting [5]).

Consider `C=CC(=O)N1CCN(c2nc(=O)n(-c3ccccc3C(C)C)c3nc(N4CCCCC4)c(Cl)cc23)[C@@H](C)C1` [Example 69-1, 6-Chloro-4-((2S)-2-methyl-4-(2-propenoyl)-1-piperazinyl)-7-(1-piperidinyl)-1-(2-(2-propanyl)phenyl)pyrido[2,3-d]pyrimidin-2(1H)-one], for which the values for the half-maximal inhibitory concentration (IC50) in assay [2] (setting [8]) and in assay [3] (setting [6]) were 1860 nM and 64.8 µM, respectively.

As for `C=CC(=O)N1CCN(c2nc(=O)n(-c3ccccc3C(C)C)c3cc(-c4ccccc4F)c(Cl)cc23)CC1` [Example 88, 6-Chloro-7-(2-fluorophenyl)-1-(2-(2-propanyl)phenyl)-4-(4-(2-propenoyl)-1-piperazinyl)-2(1H)-quinazolinone], the concentration for half-maximal inhibition (IC50) was found to be 232 nM in assay [2] (setting [4]), 243 nM in assay [2] (setting [8]) and 89.4 µM in assay [3] (setting [6]).

For the molecule `C=CC(=O)N1CCN(c2nc(=O)n(CC(C)(C)C)c3cc(-c4c(O)cccc4F)c(Cl)cc23)CC1` [Example 89, 6-Chloro-1-(2,2-dimethylpropyl)-7-(2-fluoro-6-hydroxyphenyl)-4-(4-(2-propenoyl)-1-piperazinyl)-2(1H)-quinazolinone], the IC50 is 687 nM in assay [2] (setting [4]), 294 nM in assay [2] (setting [8]), at least 10 µM in assay [3] (setting [5]) and at least 11.1 µM in assay [3] (setting [6]).
